As usually defined, the IC50 is the concentration that gives 50% inhibition. What is called Kd is the concentration at which binding is half-saturated. As a reminder, the EC50 is the concentration at which the effect is half-maximal. As usually defined, the CC50 is the concentration that lowers cell viability or growth by half. Broadly, the half-life is the time needed for the level to fall by half in the phase considered.

We go through 14 compounds from ChEMBL document CHEMBL6083280, “De Novo Discovery of a Noncovalent Cell-Penetrating Bicyclic Peptide Inhibitor Targeting SARS-CoV-2 Main Protease” (J Med Chem, 2024).

Series [1] concerns the target T1, Replicase polyprotein 1ab (Severe acute respiratory syndrome coronavirus 2, UniProt P0DTD1). Nature of the series: Inhibition of N-terminal his-tagged SARS-CoV-2 Main protease expressed in Escherichia coli BL21 (DE3) using Dabcyl-TSAVLWSGFRICMK-Edans as substrate preincubated for 10 mins by microplate reader analysis.
Series [2] deals with T1, Replicase polyprotein 1ab. The experiment in a line: Binding affinity to N-terminal his-tagged SARS-CoV-2 Main protease expressed in Escherichia coli BL21 (DE3) assessed as dissociation constant by ITC analysis. (In general: Isothermal titration calorimetry measures the heat released or taken up as one component is titrated into another.)
The subject of series [3] is SARS-CoV-2. Nature of the series: Antiviral activity against SARS-CoV-2 infected in human Caco-2 cells assessed as inhibition of viral infection preincubated for 1 hr followed by viral infection measured after 48 hrs by CQ1 confocal quantitative image cytometer analysis. The following applies: for Activity: Severe acute respiratory syndrome coronavirus 2, time 49.0 hrs; for EC50: Severe acute respiratory syndrome coronavirus 2, Caco-2. It is filed as functional, organism-based.

The subject of series [4] is SARS-CoV-2. Nature of the series: Antiviral activity against SARS-CoV-2. The following applies: Severe acute respiratory syndrome coronavirus 2. It is filed as functional, organism-based.
Series [5] has as its target Cathepsin B (Homo sapiens) (UniProt P07858). The experiment in a line: Inhibition of cathepsin B (unknown origin).
Series [6] has as its target Ubiquitin carboxyl-terminal hydrolase 14 (Homo sapiens) (UniProt P54578). Nature of the series: Inhibition of USP14 (unknown origin).
A short description of series [7]: Cytotoxicity against human Caco-2 cells assessed as cell viability at 100 uM incubated for 48 hrs by CCK-8 assay. The following applies: Caco-2 cells. It is filed as toxicity, cell-based. On the technique in general: Formazan colour is commonly taken as a measure of viable cells.
Series [8] can be described thus: Metabolic stability in mouse serum assessed as half life by HPLC analysis. The class given is ADME, cell-free.

Activity calls are given as the source filed them. Positions of bridges follow the written chain, without caps; N, C: chain ends. Residues, ends and D or L forms follow the SMILES beside them.

Ubiquitin carboxyl-terminal hydrolase 14 (Homo sapiens), sequence (P54578 whole entry): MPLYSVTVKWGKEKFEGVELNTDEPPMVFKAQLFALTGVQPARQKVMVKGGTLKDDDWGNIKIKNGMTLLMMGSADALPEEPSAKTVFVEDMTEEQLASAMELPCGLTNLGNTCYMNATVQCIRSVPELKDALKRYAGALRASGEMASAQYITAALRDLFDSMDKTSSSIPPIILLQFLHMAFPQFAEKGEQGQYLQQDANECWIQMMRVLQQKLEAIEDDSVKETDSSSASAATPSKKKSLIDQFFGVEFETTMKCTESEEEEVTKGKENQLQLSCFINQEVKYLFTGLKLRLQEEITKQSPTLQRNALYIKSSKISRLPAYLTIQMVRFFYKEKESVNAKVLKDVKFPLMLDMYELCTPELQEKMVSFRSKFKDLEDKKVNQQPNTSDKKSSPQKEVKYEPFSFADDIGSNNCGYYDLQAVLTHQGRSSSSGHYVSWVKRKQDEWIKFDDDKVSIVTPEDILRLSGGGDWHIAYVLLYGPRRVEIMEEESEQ

In the case of `CC[C@H](C)[C@@H]1NC(=O)[C@H](Cc2ccc(O)cc2)NC(=O)[C@H](CO)NC(=O)[C@H](CC(C)C)NC(=O)CNC(=O)[C@H](Cc2ccc(O)cc2)NC(=O)[C@H](CO)NC(=O)[C@H](CCC(N)=O)NC(=O)[C@H](Cc2ccccc2)NC(=O)[C@@H](Cc2ccc(O)cc2)NC(=O)CSC[C@@H](C(=O)NCC(N)=O)NC(=O)CNC(=O)[C@@H]2CCCN2C1=O`, the IC50 in series [1] was 460 nM. The Kd in series [2] was found to be 2780 nM. In the series on SARS-CoV-2 [3], the outcome was inactive.
The compound `CC(C)c1nc(CN(C)C(=O)N[C@H](C(=O)N[C@@H](Cc2ccccc2)C[C@H](O)[C@H](Cc2ccccc2)NC(=O)OCc2cncs2)C(C)C)cs1` [RITONAVIR] yielded an EC50 with SARS-CoV-2 [4] of 7540 nM.
For `CC[C@H](C)[C@@H]1NC(=O)[C@@H](Cc2ccc(O)cc2)NC(=O)CSC[C@@H](C(=O)NCC(N)=O)NC(=O)[C@@H]2CCCN2C(=O)[C@H](CC(C)C)NC(=O)[C@H](CC(C)C)NC(=O)[C@H]([C@@H](C)O)NC(=O)[C@H](CC(N)=O)NC(=O)CNC(=O)[C@H](CO)NC(=O)[C@H](C)NC(=O)[C@H](Cc2ccccc2)NC(=O)[C@H](CCCNC(=N)N)NC1=O`, half-maximal inhibition in series [1] (IC50) required 250 nM. The Kd in series [2] is 4800 nM. Further, in the series on SARS-CoV-2 [3], the result was inactive.
As for `CC(C)C[C@@H]1NC(=O)[C@H](CC(N)=O)NC(=O)[C@H](Cc2ccc(O)cc2)NC(=O)CSC[C@@H](C(=O)NCC(N)=O)NC(=O)[C@H](Cc2ccccc2)NC(=O)[C@H](CCCNC(=N)N)NC(=O)[C@H](CCC(N)=O)NC(=O)[C@H](CC(N)=O)NC(=O)[C@H](Cc2c[nH]c3ccccc23)NC(=O)[C@H](CC(=O)O)NC(=O)[C@H]([C@@H](C)O)NC(=O)[C@H](CCCNC(=N)N)NC(=O)[C@H](CCC(N)=O)NC(=O)[C@H](Cc2ccccc2)NC1=O` ({CH2CO}-YNLFQRTDWNQRFCG-NH2; thioether N-14), in series [1], the IC50 was found to be 250 nM. In series [2], the Kd was determined as 2540 nM. Also, the result with SARS-CoV-2 [3] was inactive.
Turning to `CC(C)C[C@@H]1NC(=O)[C@H](Cc2ccc(F)c(F)c2)NC(=O)[C@@H]2CCCN2C(=O)[C@H]([C@@H](C)O)NC(=O)[C@H]([C@@H](C)O)NC(=O)[C@H]([C@@H](C)O)NC(=O)[C@H](Cc2c[nH]cn2)NC(=O)[C@H](Cc2cccc(F)c2)NC(=O)[C@H]([C@@H](C)O)NC(=O)[C@H](C(C)C)NC(=O)[C@@H](Cc2ccc(O)cc2)NC(=O)CSC[C@@H](C(=O)NCC(N)=O)NC(=O)[C@@H]2CCCN2C(=O)[C@@H]2CCCN2C1=O`, the IC50 in series [1] came out at 320 nM. Moreover, the EC50 in the series on SARS-CoV-2 [3] is more than 100000 nM. Further, the inhibition entry in series [5] and in series [6] was “Active” in each case.
For the compound `CC[C@H](C)[C@@H]1NC(=O)[C@@H](Cc2ccc(O)cc2)NC(=O)CSC[C@@H](C(N)=O)NC(=O)[C@H](C(C)C)NC(=O)[C@H](CC(C)C)NC(=O)[C@@H]2CCCN2C(=O)[C@H](Cc2ccccc2)NC(=O)[C@H]([C@@H](C)O)NC(=O)[C@H](CCC(N)=O)NC1=O`, the IC50 in series [1] is 1400 nM. In addition, in the series with SARS-CoV-2 [3], the outcome was inactive.
For the compound `CC(C)(C)[C@H](NC(=O)C(F)(F)F)C(=O)N1C[C@H]2[C@@H]([C@H]1C(=O)N[C@H](C#N)C[C@@H]1CCNC1=O)C2(C)C`, the EC50 in the series on SARS-CoV-2 [4] amounted to 32.6 nM.
`CC(C)C[C@@H]1NC(=O)[C@H](Cc2ccccc2)NC(=O)[C@@H](Cc2ccc(O)cc2)NC(=O)CSC[C@@H](C(=O)NCC(N)=O)NC(=O)CNC(=O)[C@H](Cc2ccccc2)NC(=O)[C@H]([C@@H](C)O)NC(=O)[C@H](Cc2ccc(O)cc2)NC(=O)[C@H](CCCNC(=N)N)NC(=O)[C@H](Cc2ccc(O)cc2)NC(=O)[C@@H]2CCCN2C(=O)[C@@H]2CCCN2C1=O` returned an IC50 in series [1] of 1450 nM. Besides, the equilibrium dissociation constant (Kd) in series [2] stood at 4000 nM. The result in the series on SARS-CoV-2 [3] was inactive.
`CC[C@H](C)[C@@H]1NC(=O)[C@@H](Cc2ccc(O)cc2)NC(=O)CSC[C@@H](C(N)=O)NC(=O)[C@H](C(C)C)NC(=O)[C@H](CC(C)C)NC(=O)[C@@H]2CCCN2C(=O)[C@H](Cc2ccccc2)NC(=O)[C@H]([C@@H](C)O)NC(=O)[C@H](Cc2c[nH]cn2)NC1=O` had an IC50 in series [1] of 1400 nM. In addition, the result in the series with SARS-CoV-2 [3] was inactive.
In turn, `CC(C)C[C@@H]1NC(=O)[C@H](Cc2ccccc2)NC(=O)[C@@H]2CCCN2C(=O)[C@H]([C@@H](C)O)NC(=O)[C@H]([C@@H](C)O)NC(=O)[C@H]([C@@H](C)O)NC(=O)[C@H](Cc2c[nH]cn2)NC(=O)[C@H](Cc2ccccc2)NC(=O)[C@H]([C@@H](C)O)NC(=O)[C@H](C(C)C)NC(=O)[C@@H](Cc2ccc(O)cc2)NC(=O)CC[C@@H](C(=O)NCC(N)=O)NC(=O)[C@@H]2CCCN2C(=O)[C@@H]2CCCN2C1=O` gave an IC50 in series [1] of 150 nM. In addition, the EC50 in the series with SARS-CoV-2 [3] is more than 100000 nM.
Consider `CC(C)C[C@@H]1NC(=O)[C@H](CC(N)=O)NC(=O)[C@H](Cc2ccc(O)cc2)NC(=O)CSC[C@@H](C(=O)NCC(N)=O)NC(=O)[C@H](Cc2ccc(O)cc2)NC(=O)[C@H](CCC(N)=O)NC(=O)[C@H]([C@@H](C)O)NC(=O)[C@H]([C@@H](C)O)NC(=O)[C@H](Cc2c[nH]c3ccccc23)NC(=O)[C@H](CC(=O)O)NC(=O)[C@H]([C@@H](C)O)NC(=O)[C@H](CCCNC(=N)N)NC(=O)[C@H](CCC(N)=O)NC(=O)[C@H](Cc2ccccc2)NC1=O` ({CH2CO}-YNLFQRTDWTTQYCG-NH2; thioether N-14), for which the IC50 in series [1] came out at 500 nM. For the same compound, the Kd in series [2] amounted to 1120 nM. Besides, in the series on SARS-CoV-2 [3], the concentration for a half-maximal effect (EC50) turned out to be 4890 nM and the outcome was inactive. Also, the CC50 at 48 h in series [7] was more than 100000 nM. For the same compound, in series [8], the half-life was 1.6 h.
Compound `CC(C)[C@@H]1NC(=O)[C@@H](Cc2ccc(O)cc2)NC(=O)CC[C@@H](C(N)=O)NC(=O)[C@@H]2CCCN2C(=O)[C@@H]2CCCN2C(=O)[C@@H]2CSc3c(F)c(F)c(c(F)c3F)SC[C@H](NC1=O)C(=O)N[C@@H](Cc1ccccc1)C(=O)N[C@@H](Cc1c[nH]cn1)C(=O)N[C@@H]([C@@H](C)O)C(=O)N[C@@H]([C@@H](C)O)C(=O)N[C@@H]([C@@H](C)O)C(=O)N1CCC[C@H]1C(=O)N[C@@H](Cc1ccccc1)C(=O)N2` registered an IC50 in series [1] of 16600 nM. Moreover, in the series on SARS-CoV-2 [3], the concentration giving a half-maximal response (EC50) is more than 100000 nM.
Regarding `CC(C)C[C@@H]1NC(=O)[C@H](CC(N)=O)NC(=O)[C@H](Cc2ccc(O)cc2)NC(=O)CSC[C@@H](C(=O)NCC(N)=O)NC(=O)[C@H](Cc2ccccc2)NC(=O)[C@H](CO)NC(=O)[C@H](CO)NC(=O)[C@H](CO)NC(=O)[C@H](Cc2c[nH]c3ccccc23)NC(=O)[C@H](CC(=O)O)NC(=O)[C@H](C)NC(=O)[C@H](CCCNC(=N)N)NC(=O)[C@H](CCC(N)=O)NC(=O)[C@H](Cc2ccccc2)NC1=O` ({CH2CO}-YNLFQRADWSSSFCG-NH2; thioether N-14), in series [1], the IC50 was 300 nM. In addition, in series [2], the Kd is 6730 nM. Further, in the series on SARS-CoV-2 [3], the outcome was inactive.
`CC(C)C[C@H](NC(=O)OCc1ccccc1)C(=O)N[C@@H](CC1CCNC1=O)C(O)S(=O)(=O)O` (stereo partly specified) had an EC50 in the series with SARS-CoV-2 [4] of 4500 nM.
